Measurements as given in US20140128606A1, “ANTIPRURITIC AGENT” (Toray Industries, Inc., priority 2011, published 2014).
Where a name gives a salt, the structure may show the parent alone. Read-outs that look alike come from different tables or passages of the source.

Assays:
[1] = tested on: substance P-induced scratching behavior; test: Inhibitory effect on substance P-induced scratching behavior in mice (MicroAct automatic detection); assay type: in vivo, mouse; conditions: for Number of scratching behavior (means ± standard error): counted for 15 minutes
Description: Substance P-induced scratching behavior in mice which is an intractable pruritus model was induced by the method described in a known document (Togashi et al., European Journal of Pharmacology, 2002, Vol. 435, p. 259 and the like). Further, evaluation of the scratching behavior was objectively carried out by automatic detection using MicroAct (NeuroScience, Inc.) based on the method described in a known document (Hashimoto et al., Allergology International, 2004, Vol. 53, p. 349).
More particularly, at least five days before the evaluation of drug effect, neodymium magnets (diameter: 1 mm, length: 3 mm) coated with Parafilm were subcutaneously inserted into the insteps of both hind limbs of 5 to 7 week-old male ICR mouse (Japan SLC, Inc.) under isoflurane anesthesia. One or two days before the day of the evaluation of drug effect, the hair of the rostral part of the back of the mouse was shaved with a hair clipper under isoflurane anesthesia. At least one hour before the start of the measurement of the number of scratching behavior, each mouse (6 to 8 weeks old) was individually placed in a chamber for measurement (diameter: 11 cm, height: 18 cm) for acclimation. After the acclimation, substance P (5 mmol/L) or phosphate-buffered saline (hereinafter referred to as PBS) as a solvent thereof was intradermally administered (0.05 mL/site) into the rostral part of the back, and the measurement of the number of scratching behavior was started immediately after the administration. The number of scratching behavior was recorded by amplifying electric current induced by the movement of the magnets inserted in the hind limbs in a round coil surrounding the chamber for measurement. The measurement was carried out under unattended environment, and the evaluation of the drug effect was carried out by using the number of scratching behavior occurred for 15 minutes after the start of the measurement as an index.
A test compound or a solvent thereof was administered in an amount of 10 mL/kg 30 to 60 minutes before the start of the measurement of the number of scratching behavior. Varenicline tartrate (Tocris Bioscience) was dissolved in PBS and intraperitoneally administered in a dose of 1, 3 or 10 mg/kg 60 minutes before the start of the measurement of the number of scratching behavior. N-(1-azabicyclo[2.2.2]oct-3(R)-yl)-4-chlorobenzamide hydrochloride (PNU-282987) hydrate (Sigma-Aldrich) was dissolved in PBS and intraperitoneally administered in a dose of 0.3 or 1 mg/kg 45 minutes before the start of the measurement of the number of scratching behavior. The compound of Reference Example 1 was dissolved in PBS and intraperitoneally administered in a dose of 0.1 or 0.3 mg/kg 30 minutes before the start of the measurement of the number of scratching behavior. The compound of Reference Example 2 was dissolved in PBS and intraperitoneally administered in a dose of 1, 3, or 10 mg/kg 45 minutes before the start of the measurement of the number of scratching behavior. The compound of Reference Example 3 was dissolved in distilled water and orally administered in a dose of 1, 3, or 10 mg/kg 30 minutes before the start of the measurement of the number of scratching behavior. The compound of Reference Example 4 was dissolved in PBS and intraperitoneally administered in a dose of 1, 3, or 10 mg/kg 45 minutes before the start of the measurement of the number of scratching behavior. The compound of Reference Example 5 was dissolved in PBS and intraperitoneally administered in a dose of 1, 3, or 10 mg/kg 30 minutes before the start of the measurement of the number of scratching behavior. The compound of Reference Example 6 was dissolved in PBS and intraperitoneally administered in a dose of 1, 3, or 10 mg/kg, 30 minutes before the start of the measurement of the number of scratching behavior. […]

[2] = tested on: substance P-induced scratching behavior; conditions: literature; cited from earlier work
[3] = Mus musculus, ip, read-out: Inhibition rate
[4] = i.p., 0.3 mg/kg, substance P 250 nmol/site
[5] = i.p., 1 mg/kg, substance P 250 nmol/site
[6] = Mus musculus, ip, 0.1 mg/kg, substance P 250 nmol/site, read-out: Inhibition rate
[7] = Mus musculus, ip, 0.3 mg/kg, substance P 250 nmol/site, read-out: Inhibition rate
[8] = i.p., 0.1 mg/kg, substance P 250 nmol/site
[9] = Mus musculus, ip, 1 mg/kg, substance P 250 nmol/site, read-out: Inhibition rate
[10] = Mus musculus, ip, 3 mg/kg, substance P 250 nmol/site, read-out: Inhibition rate
[11] = Mus musculus, ip, 10 mg/kg, substance P 250 nmol/site, read-out: Inhibition rate
[12] = i.p., 3 mg/kg, substance P 250 nmol/site
[13] = i.p., 10 mg/kg, substance P 250 nmol/site
[14] = p.o., 10 mg/kg, substance P 250 nmol/site
[15] = Mus musculus, po, read-out: Inhibition rate

SMILES: Cl.O=C(N[C@H]1CN2CCC1CC2)c1ccc(Cl)cc1 [PNU-282987 hydrate, N-(1-azabicyclo[2.2.2]oct-3(R)-yl)-4-chlorobenzamide hydrochloride, reference compound]
- inhibition at 0.3 mg/kg [1, 3]: 42%
- inhibition at 1 mg/kg [1, 3]: 72%
- Number of scratching behavior (means ± standard error) [1, 4]: 81 ± 9
- Number of scratching behavior (means ± standard error) [1, 5]: 48 ± 8

SMILES: Cl.Clc1ccc(OC[C@H]2CCN2)cn1 [Reference Example 1, (R)-2-Chloro-5-(2-azetidinylmethoxy)pyridine hydrochloride]
- inhibition at 0.1 mg/kg [1, 6]: 107%
- inhibition at 0.3 mg/kg [1, 7]: 121%
- Number of scratching behavior (means ± standard error) [1, 8]: 21 ± 8
- Number of scratching behavior (means ± standard error) [1, 4]: 6 ± 2

SMILES: O=C(N[C@@H]1C2CCN(CC2)[C@H]1Cc1cccnc1)c1cc2ccccc2o1 [Reference Example 2, N-(2(S)-(Pyridin-3-ylmethyl)-1-azabicyclo[2.2.2]oct-3(R)-yl)-1-benzofuran-2-carboxamide]
- inhibition at 1 mg/kg [1, 9]: 71%
- inhibition at 3 mg/kg [1, 10]: 38%
- inhibition at 10 mg/kg [1, 11]: 62%
- Number of scratching behavior (means ± standard error) [1, 5]: 67 ± 10
- Number of scratching behavior (means ± standard error) [1, 12]: 97 ± 14
- Number of scratching behavior (means ± standard error) [1, 13]: 75 ± 8

SMILES: Cl.O=C(N[C@H]1CN2CCC1CC2)c1cc2cccc(Cl)c2s1 [Reference Example 3, (R)-7-Chloro-N-(quinuclidin-3-yl)benzo[b]thiophene-2-carboxamide hydrochloride]
- inhibition at 1 mg/kg ([1]; Mus musculus, po, 1 mg/kg, substance P 250 nmol/site, read-out: Inhibition rate): 32%
- inhibition at 3 mg/kg ([1]; Mus musculus, po, 3 mg/kg, substance P 250 nmol/site, read-out: Inhibition rate): 51%
- inhibition at 10 mg/kg ([1]; Mus musculus, po, 10 mg/kg, substance P 250 nmol/site, read-out: Inhibition rate): 79%
- Number of scratching behavior (means ± standard error) ([1]; p.o., 1 mg/kg, substance P 250 nmol/site): 71 ± 14
- Number of scratching behavior (means ± standard error) ([1]; p.o., 3 mg/kg, substance P 250 nmol/site): 57 ± 13
- Number of scratching behavior (means ± standard error) [1, 14]: 36 ± 8

SMILES: Cl.O=C(Oc1ccc(Br)cc1)N1CCN2CCC1CC2 [Reference Example 4, 1,4-Diazabicyclo[3.2.2]nonane-4-carboxylic acid 4-bromophenyl ester hydrochloride]
- inhibition at 1 mg/kg [1, 3]: 32%
- inhibition at 3 mg/kg [1, 3]: 63%
- inhibition at 10 mg/kg [1, 3]: 80%
- Number of scratching behavior (means ± standard error) [1, 5]: 89 ± 12
- Number of scratching behavior (means ± standard error) [1, 12]: 59 ± 14
- Number of scratching behavior (means ± standard error) [1, 13]: 42 ± 6

SMILES: Cc1ccc2oc(N3CCN4CCC3CC4)nc2n1.Cl [Reference Example 5, 2-(1,4-Diazabicyclo[3.2.2]non-4-yl)-5-methyloxazolo[4,5-b]pyridine hydrochloride]
- inhibition at 1 mg/kg [1, 9]: 25%
- inhibition at 3 mg/kg [1, 10]: 46%
- inhibition at 10 mg/kg [1, 11]: 59%
- Number of scratching behavior (means ± standard error) [1, 5]: 82 ± 6
- Number of scratching behavior (means ± standard error) [1, 12]: 62 ± 11
- Number of scratching behavior (means ± standard error) [1, 13]: 50 ± 12

SMILES: Cl.O=C(CCCCN1CCOCC1)Nc1ccc(-c2cccnc2)cc1 [Reference Example 6, 5-(4-Morpholinyl)-N-(4-(3-pyridyl)phenyl)pentanamide hydrochloride]
- inhibition at 1 mg/kg [1, 9]: 32%
- inhibition at 3 mg/kg [1, 10]: 52%
- inhibition at 10 mg/kg [1, 11]: 104%
- Number of scratching behavior (means ± standard error) [1, 5]: 94 ± 15
- Number of scratching behavior (means ± standard error) [1, 12]: 78 ± 10
- Number of scratching behavior (means ± standard error) [1, 13]: 36 ± 5

SMILES: CN1C[C@@H]2CN(c3ccc(-c4ccccc4)nn3)C[C@@H]2C1 [Reference Example 7, cis-2-methyl-5-(6-phenylpyridazin-3-yl)perhydropyrrolo[3,4-c]pyrrole fumarate]
- inhibition at 0.3 mg/kg [1, 3]: 25%
- inhibition at 1 mg/kg [1, 3]: 79%
- inhibition at 3 mg/kg [1, 3]: 66%
- Number of scratching behavior (means ± standard error) [1, 4]: 101 ± 20
- Number of scratching behavior (means ± standard error) [1, 5]: 37 ± 8
- Number of scratching behavior (means ± standard error) [1, 12]: 52 ± 9

SMILES: C[C@H](OC(=O)N[C@@H]1CN2CCC1CC2)c1ccccc1F [Reference Example 8, (S)-1-(2-fluorophenyl)ethyl(S)-quinuclidin-3-ylcarbamate]
- inhibition at 10 mg/kg [1, 15]: 41%
- inhibition at 30 mg/kg [1, 15]: 49%
- Number of scratching behavior (means ± standard error) [1, 14]: 92 ± 17
- Number of scratching behavior (means ± standard error) ([1]; p.o., 30 mg/kg, substance P 250 nmol/site): 83 ± 19

SMILES: O=C(N[C@H]1CN2CCC1CC2)c1cc2ccoc2cn1 [Reference Example 9, N-(1-Azabicyclo[2.2.2]oct-3(R)-yl)furo[2,3-c]pyridine-5-carboxamide dihydrochloride]
- inhibition at 0.1 mg/kg [1, 6]: 10%
- inhibition at 0.3 mg/kg [1, 7]: 43%
- inhibition at 1 mg/kg [1, 9]: 70%
- Number of scratching behavior (means ± standard error) [1, 8]: 109 ± 21
- Number of scratching behavior (means ± standard error) [1, 4]: 76 ± 18
- Number of scratching behavior (means ± standard error) [1, 5]: 50 ± 10

SMILES: Cl.O=C(N[C@H]1CN2CCC1CC2)c1ccc2c(c1)OCCO2 [Reference Example 10, N-(1-Azabicyclo[2.2.2]oct-3(R)-yl)-2,3-dihydro-1,4-benzodioxin-6-carboxamide hydrochloride]
- inhibition at 0.1 mg/kg [1, 3]: 3%
- inhibition at 0.3 mg/kg [1, 3]: 17%
- inhibition at 1 mg/kg [1, 3]: 58%
- Number of scratching behavior (means ± standard error) [1, 8]: 131 ± 18
- Number of scratching behavior (means ± standard error) [1, 4]: 115 ± 19
- Number of scratching behavior (means ± standard error) [1, 5]: 69 ± 10

SMILES: O=C(O)Cc1ccccc1Nc1c(Cl)cccc1Cl [diclofenac]
- Inhibition of substance P-induced scratching behavior in mice (in words) [2]: not inhibited

SMILES: COc1ccc2c(c1)c(CC(=O)O)c(C)n2C(=O)c1ccc(Cl)cc1 [indomethacin]
- Inhibition of substance P-induced scratching behavior in mice (in words) [2]: not inhibited

SMILES: C=CC[C@@H]1/C=C(\C)C[C@H](C)C[C@H](OC)[C@H]2O[C@@](O)(C(=O)C(=O)N3CCCC[C@H]3C(=O)O[C@H](/C(C)=C/[C@@H]3CC[C@@H](O)[C@H](OC)C3)[C@H](C)[C@@H](O)CC1=O)[C@H](C)C[C@@H]2OC [tacrolimus]
- Inhibition of substance P-induced scratching behavior in mice (in words) [2]: not inhibited
